One may read the GI50 as the concentration giving 50% growth inhibition. By IC50 is commonly meant the midpoint of a concentration-inhibition curve. The low end stands for higher potency, the high end for lower potency. What is called half-life is the time in which the quantity being followed falls by half. The low end stands for fast loss, the high end for slow loss.

In patent US8143282B2, “Heterocyclic compounds” (S*BIO Pte Ltd., priority 2005, dated 2012) one finds GI50, IC50 and half-life data, which are given here for 27 compounds.

Series [1] relates to Colo205 cells. Kind of series: Cell-based proliferation assay for GI50 (CyQUANT), Colo205. To be noted: Homo sapiens, COLO 205, 96 h treatment, read-out: Cellular or Growth Inhibition Activity in Colo205 cells, GI50. The method, boiled down: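 Cells were seeded at 1000 (PC3), 5000 (Colo205), 6000 (HCT116) or 4000 (HEP3B) per well and left 24 h at 37° C. Compound treatment lasted 96 h. Growth was read by CyQUANT, and GI50 (50% growth inhibition) came from dose-response curves.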

The target of series [2] is T1, HDAC1 enzyme (Homo sapiens, UniProt Q13547).
T1 construct: Amplification of human HDAC1 coding region from this cDNA library was cloned separately into the baculovirus expression pDEST20 vector; made in house; host or cells: SF9 insect cells, pDEST20-HDAC1 baculovirus
T1 sequence (Q13547 whole entry): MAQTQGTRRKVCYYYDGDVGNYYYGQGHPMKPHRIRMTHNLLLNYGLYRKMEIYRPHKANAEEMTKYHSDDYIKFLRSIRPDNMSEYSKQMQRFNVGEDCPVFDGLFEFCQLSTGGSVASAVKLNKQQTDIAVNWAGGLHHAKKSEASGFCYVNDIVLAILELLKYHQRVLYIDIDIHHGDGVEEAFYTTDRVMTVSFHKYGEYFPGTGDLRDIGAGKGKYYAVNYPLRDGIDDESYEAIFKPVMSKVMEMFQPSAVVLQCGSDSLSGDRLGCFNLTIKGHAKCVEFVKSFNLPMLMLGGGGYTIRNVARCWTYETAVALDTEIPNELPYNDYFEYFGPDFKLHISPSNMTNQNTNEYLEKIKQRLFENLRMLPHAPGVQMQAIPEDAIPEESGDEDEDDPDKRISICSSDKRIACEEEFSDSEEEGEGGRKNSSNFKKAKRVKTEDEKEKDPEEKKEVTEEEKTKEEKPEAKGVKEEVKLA
Kind of series: In vitro HDAC assay for determination of IC50 values (BIOMOL fluorescent-based HDAC activity assay). It counts as biochemical. A digest of the protocol:
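Recombinant GST-HDAC1, cloned from SW620 cDNA and expressed in Sf9 cells, tested in a fluorogenic Fluor de Lys deacetylase assay. Developer was added for 10 min and fluorescence read at 360/460 nm. IC50 came from concentration series.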

The nature of series [3]: Measurement of microsomal stability. To be noted: pooled human liver microsomes, pH 7.4; human liver microsome, 5 μM test compound, 1.0 mg/ml microsomal protein. It is filed as in vitro ADME. The protocol:
Metabolic stability measurements in the in vitro using liver microsomes aids in the prediction of the in vivo hepatic clearance and the compound stability towards phase I biotransformation reactions mediated by P450 isozymes.
Pooled human liver microsome (HLM was purchased from BD Gentest (BD BioSciences). The incubations consisted of test compound (5 μM) or control compound (Verapamil), NADPH-generating system solution A (25 mM NADP^+, 66 mM glucose-6-phosphate, 66 mM MgCl2 in H2O), NADPH-generating system solution B (40 U/ml glucose-6-phosphate dehydrogenase in 5 mM sodium citrate) and 1.0 mg/ml microsomal protein, respectively, in 100 mM potassium phosphate buffer (pH 7.4). Samples were incubated for 0, 5, 15, 30, 45, 60 min. Reaction was terminated with ice-cold 80% acetonitrile and 20% DMSO. Samples were subsequently centrifuged at 4° C. for 15 min at 2,000 rpm. 100 μL of the supernatant was transferred to the LC-MS Plate for analysis. Before quantitative analysis, the compound was tuned in LC/MS machine to get the optimized MS condition. Liquid chromatography was performed on a Luna C18 column (Phenomenex U.S.A, Torrance, Calif.) (2×50 mm, 5 μM). % of the compound remaining (by area) at each time point is calculated with respect to time 0 min. Plot % remaining against time (min) to obtain the curve and use the Prism software to obtain the t1/2.
(Microsomes from liver hold many membrane-bound enzymes, among them those of drug oxidation.)

As for `CC(C)c1nc2cc(/C=C/C(=O)NO)ccc2n1CC(C)(C)CN(C)C` [Compound 2, 3-[1-(3-Dimethylamino-2,2-dimethyl-propyl)-2-isopropyl-1H-benzoimidazol-5-yl]-N-hydroxy-acrylamide], the GI50 in series [1] turned out to be 2120 nM. In series [2], half-maximal inhibition (IC50) was put at 380 nM. In series [3], this compound registered a half-life at 5 μM greater than 30 min.

In the case of `C=CCCc1nc2cc(/C=C/C(=O)NO)ccc2n1CCN(CC)CC` [Compound 11, 3-[2-But-3-enyl-1-(2-diethylamino-ethyl)-1H-benzoimidazol-5-yl]-N-hydroxy-acrylamide], the GI50 in series [1] is 480 nM. This compound showed an IC50 in series [2] of 70 nM. This compound registered a half-life at 5 μM in series [3] greater than 30 min.

Regarding `C#CCCc1nc2cc(/C=C/C(=O)NO)ccc2n1CCN(CC)CC` [Compound 12, 3-[2-But-3-ynyl-1-(2-diethylamino-ethyl)-1H-benzoimidazol-5-yl]-N-hydroxy-acrylamide], the GI50 in series [1] worked out at 510 nM. The compound also displayed an IC50 in series [2] of 64 nM. The half-life at 5 μM in series [3] was greater than 30 min.

Consider `CCCN(CC)CCn1cnc2cc(/C=C/C(=O)NO)ccc21` [Compound 112, 3-{1-[2-(Ethyl-propyl-amino)-ethyl]-1H-benzoimidazol-5-yl}-N-hydroxy-acrylamide], for which, in series [1], the GI50 stood at 880 nM. This compound also showed an IC50 in series [2] of 120 nM.

On to `CCCC(C)CN(CCn1cnc2cc(/C=C/C(=O)NO)ccc21)C(C)C` (stereo not drawn) [Compound 113, N-Hydroxy-3-(1-{2-[isopropyl-(2-methyl-pentyl)-amino]-ethyl}-1H-benzoimidazol-5-yl)-acrylamide], for which the concentration for 50% growth inhibition (GI50) in series [1] came to 610 nM. Further, the IC50 in series [2] amounted to 16 nM.

On to `CC(C)N(CCCC(F)(F)F)CCn1cnc2cc(/C=C/C(=O)NO)ccc21` [Compound 114, (E)-N-hydroxy-3-(1-(2-(isopropyl(4,4,4-trifluorobutyl)amino)ethyl)-1H-benzo[d]imidazol-5-yl)acrylamide], for which the GI50 in series [1] was 720 nM. For the same compound, in series [2], the IC50 amounted to 63 nM.

With `CCCCCCN(CC)CCn1c(C)nc2cc(/C=C/C(=O)NO)ccc21` [Compound 116, 3-{1-[2-(Ethyl-hexyl-amino)-ethyl]-2-methyl-1H-benzoimidazol-5-yl}-N-hydroxy-acrylamide], the GI50 in series [1] was determined as 700 nM. Also, the IC50 in series [2] is 100 nM.

With `CCCCN(CC)CCn1c(C(F)(F)F)nc2cc(/C=C/C(=O)NO)ccc21` [Compound 117, 3-{1-[2-(Butyl-ethyl-amino)-ethyl]-2-trifluoromethyl-1H-benzoimidazol-5-yl}-N-hydroxy-acrylamide], in series [1], the GI50 came to 1800 nM. This compound also showed an IC50 in series [2] of 190 nM.

Consider `CCCCCCN(CC)CCn1c(C(F)(F)F)nc2cc(/C=C/C(=O)NO)ccc21` [Compound 118, 3-{1-[2-(Ethyl-hexyl-amino)-ethyl]-2-trifluoromethyl-1H-benzoimidazol-5-yl}-N-hydroxy-acrylamide], for which the GI50 in series [1] stood at 1880 nM. The 50% inhibitory concentration (IC50) in series [2] stood at 480 nM.

For `CCCCN(CCCC)CCn1c(CCC)nc2cc(/C=C/C(=O)NO)ccc21` [Compound 119, (E)-3-(1-(2-(dibutylamino)ethyl)-2-propyl-1H-benzo[d]imidazol-5-yl)-N-hydroxyacrylamide], the GI50 in series [1] amounted to 770 nM. In addition, the IC50 in series [2] was 180 nM.

Consider `CCCN(CCC)CCn1cnc2cc(/C=C/C(=O)NO)ccc21` [Compound 120, 3-[1-(2-Dipropylamino-ethyl)-1H-benzoimidazol-5-yl]-N-hydroxy-acrylamide], for which the GI50 in series [1] turned out to be 490 nM. The compound further yielded an IC50 in series [2] of 110 nM.

In the case of `CC(C)CCN(CCn1cnc2cc(/C=C/C(=O)NO)ccc21)C(C)C` [Compound 121, N-Hydroxy-3-(1-{2-[isopropyl-(3-methyl-butyl)-amino]-ethyl}-1H-benzoimidazol-5-yl)-acrylamide], in series [1], the concentration for 50% growth inhibition (GI50) worked out at 490 nM. Also, the 50% inhibitory concentration (IC50) in series [2] worked out at 79 nM.

As for `CN(CCn1cnc2cc(/C=C/C(=O)NO)ccc21)CCC(C)(C)C` [Compound 122, 3-(1-{2-[(3,3-Dimethyl-butyl)-methyl-amino]-ethyl}-1H-benzoimidazol-5-yl)-N-hydroxy-acrylamide], the GI50 in series [1] turned out to be 150 nM. This compound also yielded an IC50 in series [2] of 37 nM.

For the compound `CCC(CC)CN(C)CCn1cnc2cc(/C=C/C(=O)NO)ccc21` [Compound 123, 3-(1-{2-[(2-Ethyl-butyl)-methyl-amino]-ethyl}-1H-benzoimidazol-5-yl)-N-hydroxy-acrylamide], the GI50 in series [1] was found to be 150 nM. For the same compound, half-maximal inhibition in series [2] (IC50) required 27 nM.

As for `CC(C)(C)CCN(CCn1cnc2cc(/C=C/C(=O)NO)ccc21)CCC(C)(C)C` [Compound 124, (E)-3-(1-(2-(bis(3,3-dimethylbutyl)amino)ethyl)-1H-benzo[d]imidazol-5-yl)-N-hydroxyacrylamide], in series [1], the concentration for 50% growth inhibition (GI50) was 540 nM. Moreover, in series [2], 85 nM corresponded to half-maximal inhibition (IC50).

With `CC(C)CN(CCn1cnc2cc(/C=C/C(=O)NO)ccc21)CC(C)C` [Compound 125, (E)-3-(1-(2-(diisobutylamino)ethyl)-1H-benzo[d]imidazol-5-yl)-N-hydroxyacrylamide], the GI50 in series [1] stood at 680 nM. Moreover, the concentration for half-maximal inhibition (IC50) in series [2] turned out to be 160 nM.

Take `CC(C)(C)CCNCCn1cnc2cc(/C=C/C(=O)NO)ccc21` [Compound 126, 3-{1-[2-(3,3-Dimethyl-butylamino)-ethyl]-1H-benzoimidazol-5-yl}-N-hydroxy-acrylamide]: the GI50 in series [1] came to 420 nM. In series [2], this compound returned a concentration for half-maximal inhibition (IC50) of 42 nM.

Consider `C=CCCCN(C)CCn1cnc2cc(/C=C/C(=O)NO)ccc21` [Compound 127, N-Hydroxy-3-{1-[2-(methyl-pent-4-enyl-amino)-ethyl]-1H-benzoimidazol-5-yl}-acrylamide], for which the GI50 in series [1] was found to be 340 nM. The same compound showed an IC50 in series [2] of 78 nM.

As for `CCCN(CCn1cnc2cc(/C=C/C(=O)NO)ccc21)CCC(C)(C)C` [Compound 128, 3-(1-{2-[(3,3-Dimethyl-butyl)-propyl-amino]-ethyl}-1H-benzoimidazol-5-yl)-N-hydroxy-acrylamide], the GI50 in series [1] stood at 140 nM. In series [2], the IC50 came to 31 nM.

As to `CSc1nc2cc(/C=C/C(=O)NO)ccc2n1CC(C)(C)CN(C)C` [Compound 129, 3-[1-(3-Dimethylamino-2,2-dimethyl-propyl)-2-methylsulfanyl-1H-benzoimidazol-5-yl]-N-hydroxy-acrylamide], the GI50 in series [1] came to 3900 nM. The compound further displayed an IC50 in series [2] of 770 nM.

`CC(C)(C)CCNCCn1c(CC(C)(C)C)nc2cc(/C=C/C(=O)NO)ccc21` [Compound 131, 3-[1-[2-(3,3-Dimethyl-butylamino)-ethyl]-2-(2,2-dimethyl-propyl)-1H-benzoimidazol-5-yl]-N-hydroxy-acrylamide]: the GI50 in series [1] worked out at 330 nM. In series [2], this compound yielded an IC50 of 66 nM.

In the case of `CC(C)(C)CNCCn1cnc2cc(/C=C/C(=O)NO)ccc21` [Compound 133, 3-{1-[2-(2,2-Dimethyl-propylamino)-ethyl]-1H-benzoimidazol-5-yl}-N-hydroxy-acrylamide], the GI50 in series [1] amounted to 560 nM. The same compound displayed an IC50 in series [2] of 72 nM.

Turning to `CCCN(CCn1cnc2cc(/C=C/C(=O)NO)ccc21)CC(C)(C)C` [Compound 134, 3-(1-{2-[(2,2-Dimethyl-propyl)-propyl-amino]-ethyl}-1H-benzoimidazol-5-yl)-N-hydroxy-acrylamide], the GI50 in series [1] amounted to 2300 nM. Moreover, in series [2], half-maximal inhibition (IC50) required 220 nM.

For `CCc1nc2cc(/C=C/C(=O)NO)ccc2n1CCNCCC(C)(C)C` [Compound 135, 3-{1-[2-(3,3-Dimethyl-butylamino)-ethyl]-2-ethyl-1H-benzoimidazol-5-yl}-N-hydroxy-acrylamide], the 50% growth inhibitory concentration (GI50) in series [1] turned out to be 260 nM. In series [2], half-maximal inhibition (IC50) was put at 74 nM.

As for `CCCc1nc2cc(/C=C/C(=O)NO)ccc2n1CCN(C)CCC(C)(C)C` [Compound 136, 3-(1-{2-[(3,3-Dimethyl-butyl)-methyl-amino]-ethyl}-2-propyl-1H-benzoimidazol-5-yl)-N-hydroxy-acrylamide], the GI50 in series [1] is 390 nM. The compound also registered an IC50 in series [2] of 53 nM.

As for `CC(C)(C)CCN(CCn1cnc2cc(/C=C/C(=O)NO)ccc21)CC(F)(F)F` [Compound 137, 3-(1-{2-[(3,3-Dimethyl-butyl)-(2,2,2-trifluoro-ethyl)-amino]-ethyl}-1H-benzoimidazol-5-yl)-N-hydroxy-acrylamide], the GI50 in series [1] turned out to be 1970 nM. The same compound registered an IC50 in series [2] of 93 nM.

For `CCCCN(CCn1cnc2cc(/C=C/C(=O)NO)ccc21)CC(F)(F)F` [Compound 138, 3-(1-{2-[Butyl-(2,2,2-trifluoro-ethyl)-amino]-ethyl}-1H-benzoimidazol-5-yl)-N-hydroxy-acrylamide], in series [1], the GI50 amounted to 1960 nM. Also, in series [2], the IC50 was found to be 100 nM.
